What was measured:
[1] = target: Recombinant human Bcl-2 protein (Homo sapiens (Human), UniProt P10415); assay: Bcl-2 TR-FRET Assay; format: binding; conditions: Bcl-2 wild type, TR-FRET; read-out: Biochemical assay (IC50, nM) Bcl-2 WT
How it was run: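 Compounds were pre-incubated with 0.05 nM recombinant Bcl-2 for 0.5 h at room temperature in potassium phosphate buffer, pH 7.5. FITC-Bak peptide (0.5 nM) and Tb-cryptate antibody were then added for 1 h. Percent inhibition from TR-FRET signals gave IC50 values.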

[2] = target: recombinant human Bcl-2-G101V protein (Homo sapiens (Human), UniProt P10415, G101V); assay: Bcl-2-G101V TR-FRET Assay; format: binding; conditions: Bcl-2 G101V mutant, TR-FRET; read-out: Biochemical assay (IC50, nM) Bcl-2 G101V
How it was run: (§1)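 TR-FRET read at excitation 337 nm with emission at 490 nm and 520 nm. Inhibition of Bcl-2-G101V binding to its ligand across increasing compound concentrations was calculated from the 490/520 nm fluorescence ratio, and IC50 values came from four-parameter logistic fits.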

[3] = tested on: recombinant human Bcl-2-G101V protein; assay: Bcl-2-G101V TR-FRET Assay; format: binding; conditions: ratio of biochemical IC50 Bcl-2 G101V / Bcl-2 WT
How it was run: as §1

[4] = tested on: BCL-2 G101V knock-in cell line H96 (derive from RS4;11); assay: Bcl 2-G101V Knock-In RS4;11 Cell Proliferation Assay; format: cell-based; conditions: Homo sapiens, RS4;11 Bcl-2 G101V knock-in clone H96, 48 hrs, CellTiter-GLO, read-out: Cellular proliferation assay (IC50, nM) RS4
How it was run: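 H96, a CRISPR-generated RS4;11 clone carrying BCL2-G101V knock-in (WES/RNA-seq validated), seeded 50,000 per well and exposed 48 h at 37 °C to 10-point dilutions topping at 1 or 10 μM. Viability by CellTiter-Glo luminescence; mean IC50.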

[5] = tested on: RS4;11 (BCL-2 dependent acute lymphoblastic leukemia cell line); assay: RS4;11 Cell Proliferation Assay; format: cell-based; conditions: Homo sapiens, RS4-11, RS4;11 cells, read-out: Cellular proliferation assay (IC50, nM) RS4
How it was run: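 RS4;11 cells, 50,000 per well in RPMI-1640 with 10% FBS, treated 48 h at 37 °C with a 10-point dilution series topping at 1 μM. Viability read by CellTiter-Glo ATP luminescence; mean IC50 reported.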

## COc1ccc(CN(C)C2CCN(C3CC4(CCN(c5ccc(C(=O)NS(=O)(=O)c6ccc(NC[C@H]7CC[C@](C)(O)CC7)c([N+](=O)[O-])c6)c(Oc6cnc7[nH]ccc7c6)c5)CC4)C3)C(c3ccccc3C3CC3)C2)cc1 (some centres unmarked) [Example 105, 2-((1H-pyrrolo[2,3-b]pyridin-5-yl)oxy)-4-(2-(2-(2-cyclopropylphenyl)-4-((4-methoxybenzyl)(methyl)amino)piperidin-1-yl)-7-azaspiro[3.5]nonan-7-yl)-N-((4-((((1r,4r)-4-hydroxy-4-methylcyclohexyl)methyl)amino)-3-nitrophenyl)sulfonyl)benzamide]
[1]
  IC50: 0.1 nM
[2]
  IC50: 0.25 nM
[3]
  Ratio of Bcl-2 G101V/WT: 2.5
[4]
  IC50: 16.6 nM
[5]
  IC50: 2.12 nM

## COCCN1CCN(C2CC3(CCN(c4ccc(C(=O)NS(=O)(=O)c5ccc(NC[C@H]6CC[C@](C)(O)CC6)c([N+](=O)[O-])c5)c(Oc5cnc6[nH]ccc6c5)c4)CC3)C2)[C@@H](c2ccccc2C(C)C)C1 (single isomer, unassigned) [Example 13a, 2-((1H-pyrrolo[2,3-b]pyridin-5-yl)oxy)-N-((4-((((1r,4r)-4-hydroxy-4-methylcyclohexyl)methyl)amino)-3-nitrophenyl)sulfonyl)-4-(2-((S or R)-2-(2-isopropylphenyl)-4-(2-methoxyethyl)piperazin-1-yl)-7-azaspiro[3.5]nonan-7-yl)benzamide]
[1]
  IC50: 0.038 nM
[2]
  IC50: 3.6 nM
[3]
  Ratio of Bcl-2 G101V/WT: 94.7
[4]
  IC50: 87.4 nM
[5]
  IC50: 10.5 nM

## COc1ccc(CN2CCN(C3CC4(C3)CN(c3ccc(C(=O)NS(=O)(=O)c5ccc(NCC67CC8CC(C6)C(OC)C(C8)C7)c([N+](=O)[O-])c5)c(Oc5cnc6[nH]cc(F)c6c5)c3)C4)[C@H](c3ccccc3C(C)C)C2)cc1 (stereo partly drawn) [Example 356, 2-((3-fluoro-1H-pyrrolo[2,3-b]pyridin-5-yl)oxy)-4-(6-((R)-2-(2-isopropylphenyl)-4-(4-methoxybenzyl)piperazin-1-yl)-2-azaspiro[3.3]heptan-2-yl)-N-((4-((((1S,3R,7S)-4-methoxyadamantan-1-yl)methyl)amino)-3-nitrophenyl)sulfonyl) benzamide]
[1]
  IC50: 1.5 nM
[2]
  IC50: 4.2 nM
[3]
  Ratio of Bcl-2 G101V/WT: 2.9
[4]
  IC50: 1.7 nM
[5]
  IC50: 0.31 nM

## COC12CC3CC(CC(CN4CCN(C5CC6(C5)CN(c5ccc(C(=O)NS(=O)(=O)c7ccc(NC[C@H]8CC[C@](C)(O)CC8)c([N+](=O)[O-])c7)c(Oc7cnc8[nH]cc(F)c8c7)c5)C6)[C@H](c5ccccc5C(C)C)C4)(C3)C1)C2 [Example 352]
[1]
  IC50: 0.52 nM
[2]
  IC50: 2.2 nM
[3]
  Ratio of Bcl-2 G101V/WT: 4.2
[4]
  IC50: 4.56 nM
[5]
  IC50: 0.45 nM

## CC(C)c1ccccc1[C@@H]1CN(Cc2ccc(F)c(F)c2)CCN1C1CC2(C1)CN(c1ccc(C(=O)NS(=O)(=O)c3ccc(NC[C@H]4CC[C@](C)(O)CC4)c([N+](=O)[O-])c3)c(Oc3cnc4[nH]ccc4c3)c1)C2 [Example 244, 2-((1H-pyrrolo[2,3-b]pyridin-5-yl)oxy)-4-(6-((R)-4-(3,4-difluorobenzyl)-2-(2-isopropylphenyl)piperazin-1-yl)-2-azaspiro[3.3]heptan-2-yl)-N-((4-((((1r,4r)-4-hydroxy-4-methylcyclohexyl)methyl)amino)-3-nitrophenyl)sulfonyl)benzamide]
[1]
  IC50: 0.25 nM
[2]
  IC50: 0.83 nM
[3]
  Ratio of Bcl-2 G101V/WT: 3.3
[4]
  IC50: 1.36 nM
[5]
  IC50: 0.2 nM

## COc1ccc(CN2CCN(C3CC4(CCN(c5ccc(C(=O)NS(=O)(=O)c6ccc(NC[C@H]7CC[C@](C)(O)CC7)c([N+](=O)[O-])c6)c(Oc6cnc7[nH]ccc7c6)c5)CC4)C3)C(c3cc(F)ccc3C(C)C)C2)cc1 (some centres unmarked) [Example 235]
[1]
  IC50: 0.28 nM
[2]
  IC50: 1.1 nM
[3]
  Ratio of Bcl-2 G101V/WT: 3.8
[4]
  IC50: 1.21 nM
[5]
  IC50: 0.27 nM

## COc1cc(CN2CCN(C3CC4(CCN(c5ccc(C(=O)NS(=O)(=O)c6ccc(NC[C@H]7CC[C@](C)(O)CC7)c([N+](=O)[O-])c6)c(Oc6cnc7[nH]ccc7c6)c5)CC4)C3)C(c3ccccc3C(C)C)C2)cc(F)c1OC (some centres unmarked) [Example 152, 2-((1H-pyrrolo[2,3-b]pyridin-5-yl)oxy)-4-(2-(4-(3-fluoro-4,5-dimethoxybenzyl)-2-(2-isopropylphenyl)piperazin-1-yl)-7-azaspiro[3.5]nonan-7-yl)-N-((4-((((1r,4r)-4-hydroxy-4-methylcyclohexyl)methyl)amino)-3-nitrophenyl)sulfonyl)benzamide]
[1]
  IC50: 0.25 nM
[2]
  IC50: 0.89 nM
[3]
  Ratio of Bcl-2 G101V/WT: 3.5
[4]
  IC50: 1.31 nM
[5]
  IC50: 0.35 nM

## COc1cc(CN2CCN(C3CC4(C3)CN(c3ccc(C(=O)NS(=O)(=O)c5ccc(NC[C@H]6CC[C@](C)(O)CC6)c([N+](=O)[O-])c5)c(Oc5cnc6[nH]ccc6c5)c3)C4)[C@H](c3ccccc3C(C)C)C2)ccc1C1CCC1 [Example 342, 2-((1H-pyrrolo[2,5-b]pyridin-5-yl)oxy)-4-(6-((R)-4-(4-cyclobutyl-3-methoxybenzyl)-2-(2-isopropylphenyl)piperazin-1-yl)-2-azaspiro[3.3]heptan-2-yl)-N-((4-((((1r,4r)-4-hydroxy-4-methylcyclohexyl)methyl)amino)-3-nitrophenyl)sulfonyl)benzamide]
[1]
  IC50: 0.97 nM
[2]
  IC50: 3.3 nM
[3]
  Ratio of Bcl-2 G101V/WT: 2.9
[4]
  IC50: 2 nM
[5]
  IC50: 0.28 nM

## COc1cc(CN2CCN(C3CC4(CCN(c5ccc(C(=O)NS(=O)(=O)c6ccc(NC[C@H]7CC[C@](C)(O)CC7)c([N+](=O)[O-])c6)c(Oc6cnc7[nH]cc(F)c7c6)c5)CC4)C3)C(c3ccccc3C(C)C)C2)ccc1C1CC1 (some centres unmarked) [Example 161, 4-(2-(4-(4-cyclopropyl-3-methoxybenzyl)-2-(2-isopropylphenyl)piperazin-1-yl)-7-azaspiro[3.5]nonan-7-yl)-2-((3-fluoro-1H-pyrrolo[2,3-b]pyridin-5-yl)oxy)-N-((4-((((1r,4r)-4-hydroxy-4-methylcyclohexyl)methyl)amino)-3-nitrophenyl)sulfonyl) benzamide]
[1]
  IC50: 0.42 nM
[2]
  IC50: 3.9 nM
[3]
  Ratio of Bcl-2 G101V/WT: 6.8
[4]
  IC50: 1.22 nM
[5]
  IC50: 0.46 nM

## CC(C)c1ccccc1C1CN(Cc2cccc3c2N(C)CCO3)CCN1C1CC2(CCN(c3ccc(C(=O)NS(=O)(=O)c4ccc(NC[C@H]5CC[C@](C)(O)CC5)c([N+](=O)[O-])c4)c(Oc4cnc5[nH]ccc5c4)c3)CC2)C1 (some centres unmarked) [Example 200, 2-((1H-pyrrolo[2,3-b]pyridin-5-yl)oxy)-N-((4-((((1r,4r)-4-hydroxy-4-methylcyclohexyl)methyl)amino)-3-nitrophenyl)sulfonyl)-4-(2-(2-(2-isopropylphenyl)-4-((4-methyl-3,4-dihydro-2H-benzo[b][1,4]oxazin-5-yl)methyl)piperazin-1-yl)-7-azaspiro[3.5]nonan-7-yl) benzamide]
[1]
  IC50: 0.24 nM
[2]
  IC50: 1.02 nM
[3]
  Ratio of Bcl-2 G101V/WT: 4.2
[4]
  IC50: 1.6 nM
[5]
  IC50: 0.27 nM

## [2H]C([2H])(c1ccc(OC)c(OC)c1)N1CCN(C2CC3(CCN(c4ccc(C(=O)NS(=O)(=O)c5ccc(NC[C@H]6CC[C@](C)(O)CC6)c([N+](=O)[O-])c5)c(Oc5cnc6[nH]ccc6c5)c4)CC3)C2)C(c2ccccc2C(C)C)C1 (some centres unmarked) [Example 193]
[1]
  IC50: 0.068 nM
[2]
  IC50: 0.23 nM
[3]
  Ratio of Bcl-2 G101V/WT: 3.4
[4]
  IC50: 0.8 nM
[5]
  IC50: 0.26 nM

## CC(C)c1ccccc1C1CN(Cc2ccc3c(c2)CCCC3)CCN1C1CC2(CCN(c3ccc(C(=O)NS(=O)(=O)c4ccc(NC[C@H]5CC[C@](C)(O)CC5)c([N+](=O)[O-])c4)c(Oc4cnc5[nH]ccc5c4)c3)CC2)C1 (some centres unmarked) [Example 54, 2-((1H-pyrrolo[2,3-b]pyridin-5-yl)oxy)-N-((4-((((1r,4r)-4-hydroxy-4-methylcyclohexyl)methyl)amino)-3-nitrophenyl)sulfonyl)-4-(2-(2-(2-isopropylphenyl)-4-((5,6,7,8-tetrahydronaphthalen-2-yl)methyl)piperazin-1-yl)-7-azaspiro[3.5]nonan-7-yl)benzamide]
[1]
  IC50: 0.76 nM
[2]
  IC50: 4.7 nM
[3]
  Ratio of Bcl-2 G101V/WT: 6.2
[4]
  IC50: 11.7 nM
[5]
  IC50: 0.79 nM

## CC(C)c1ccccc1[C@@H]1CN(Cc2cccc3c2OCC(C)(C)O3)CCN1C1CC2(C1)CN(c1ccc(C(=O)NS(=O)(=O)c3ccc(NC[C@H]4CC[C@](C)(O)CC4)c([N+](=O)[O-])c3)c(Oc3cnc4[nH]cc(F)c4c3)c1)C2 [Example 315, 4-(6-((R)-4-((2,2-dimethyl-2,3-dihydrobenzo[b][1,4]dioxin-5-yl)methyl)-2-(2-isopropylphenyl)piperazin-1-yl)-2-azaspiro[3.3]heptan-2-yl)-2-((3-fluoro-1H-pyrrolo[2,3-b]pyridin-5-yl)oxy)-N-((4-((((1r,4r)-4-hydroxy-4-methylcyclohexyl)methyl)amino)-3-nitrophenyl)sulfonyl)benzamide]
[1]
  IC50: 0.31 nM
[2]
  IC50: 0.99 nM
[3]
  Ratio of Bcl-2 G101V/WT: 3.2
[4]
  IC50: 0.86 nM
[5]
  IC50: 0.18 nM

— US20240376097A1, “BCL-2 Inhibitor” (BeiGene Ltd., priority 2020, published 2024)
